According to PubChem BioAssay (NCI):
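Tested at 5 concentrations; 48 h exposure; 96-well plates; endpoints linearly interpolated, else capped at highest concentration. At the GI50, growth is halved. The concentration for full growth arrest is given as TGI.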

Legend:
Experiment in all cases: NCI anticancer screen, dose series, 48 h
OVCAR-4 ovarian = system: OVCAR-4 ovarian
NCI/ADR-RES ovarian = system: NCI/ADR-RES ovarian
NCI-H522 lung = system: NCI-H522 lung
SK-OV-3 ovarian = system: SK-OV-3 ovarian
TK-10 renal = system: TK-10 renal
SF-539 CNS = system: SF-539 CNS
UACC-62 melanoma = system: UACC-62 melanoma
IGROV1 ovarian = system: IGROV1 ovarian
SNB-19 CNS = system: SNB-19 CNS
PC-3 prostate = system: PC-3 prostate
A498 renal = system: A498 renal
ACHN renal = system: ACHN renal
MDA-MB-435 = system: MDA-MB-435
DU-145 prostate = system: DU-145 prostate
HOP-92 NSCLC = system: HOP-92 NSCLC
NCI-H23 lung = system: NCI-H23 lung
OVCAR-3 ovarian = system: OVCAR-3 ovarian
MALME-3M melanoma = system: MALME-3M melanoma
786-0 renal = system: 786-0 renal
HCC-2998 colon = system: HCC-2998 colon
MDA-MB-468 breast = system: MDA-MB-468 breast
UACC-257 melanoma = system: UACC-257 melanoma
A549 NSCLC = system: A549 NSCLC
OVCAR-8 ovarian = system: OVCAR-8 ovarian
RPMI-8226 leukemia = system: RPMI-8226 leukemia
K-562 leukemia = system: K-562 leukemia
HOP-62 NSCLC = system: HOP-62 NSCLC
CAKI-1 renal = system: CAKI-1 renal
SN12C renal = system: SN12C renal
HCT-116 colon = system: HCT-116 colon
BT-549 breast = system: BT-549 breast
HCT-15 colon = system: HCT-15 colon
MOLT-4 leukemia = system: MOLT-4 leukemia
COLO 205 colon = system: COLO 205 colon
KM12 colon = system: KM12 colon
M14 melanoma = system: M14 melanoma
LOX IMVI melanoma = system: LOX IMVI melanoma
SW-620 colon = system: SW-620 colon
NCI-H226 lung = system: NCI-H226 lung
MCF7 breast = system: MCF7 breast
HT29 colon = system: HT29 colon
SR leukemia = system: SR leukemia
HL-60(TB) leukemia = system: HL-60(TB) leukemia
RXF 393 renal = system: RXF 393 renal
HS 578T breast = system: HS 578T breast
CCRF-CEM leukemia = system: CCRF-CEM leukemia
OVCAR-5 ovarian = system: OVCAR-5 ovarian
EKVX NSCLC = system: EKVX NSCLC
SF-268 CNS = system: SF-268 CNS
SK-MEL-5 melanoma = system: SK-MEL-5 melanoma
NCI-H460 lung = system: NCI-H460 lung
T-47D breast = system: T-47D breast
SF-295 CNS = system: SF-295 CNS
U251 CNS = system: U251 CNS
SK-MEL-28 melanoma = system: SK-MEL-28 melanoma

For `O=C(Nc1nc2ccc([N+](=O)[O-])cc2s1)Nc1ccccc1I`, which GI50 (OVCAR-4 ovarian) is on record?
The GI50 was 3.94 µM.

And the TGI (OVCAR-4 ovarian)?
Its TGI is > 100 µM.

And the GI50 (NCI/ADR-RES ovarian)?
Its GI50 is 3.12 µM.

What about the TGI (NCI/ADR-RES ovarian) of the same compound?
Its TGI is 11.8 µM.

What about the GI50 (NCI-H522 lung) of the same compound?
The GI50 was 2730 nM.

And the TGI (NCI-H522 lung)?
The TGI was 9.1 µM.

What about the GI50 (SK-OV-3 ovarian) of the same compound?
The GI50 was 2670 nM.

What about the TGI (SK-OV-3 ovarian) of the same compound?
The TGI was 9.38 µM.

And the GI50 (TK-10 renal)?
Its GI50 is 3.43 µM.

What about the TGI (TK-10 renal) of the same compound?
The TGI was 24.3 µM.

What about the GI50 (SF-539 CNS) of the same compound?
The GI50 was 3.45 µM.

And the TGI (SF-539 CNS)?
Its TGI is 12.9 µM.

What about the GI50 (UACC-62 melanoma) of the same compound?
The GI50 was 3.31 µM.

What about the TGI (UACC-62 melanoma) of the same compound?
The TGI was 37.1 µM.

And the GI50 (IGROV1 ovarian)?
Its GI50 is 3.97 µM.

What about the TGI (IGROV1 ovarian) of the same compound?
The TGI was > 100 µM.

And the GI50 (SNB-19 CNS)?
The GI50 was 3.32 µM.

And the TGI (SNB-19 CNS)?
Its TGI is 19 µM.

What about the GI50 (PC-3 prostate) of the same compound?
The GI50 was 3.43 µM.

And the TGI (PC-3 prostate)?
Its TGI is 84.2 µM.

What about the GI50 (A498 renal) of the same compound?
Its GI50 is 2570 nM.

And the TGI (A498 renal)?
The TGI was 8.12 µM.

What about the GI50 (ACHN renal) of the same compound?
The GI50 was 3.58 µM.

What about the TGI (ACHN renal) of the same compound?
Its TGI is 15.6 µM.

What about the GI50 (MDA-MB-435) of the same compound?
Its GI50 is 3.78 µM.

And the TGI (MDA-MB-435)?
Its TGI is > 100 µM.

What about the GI50 (DU-145 prostate) of the same compound?
Its GI50 is 4.25 µM.

And the TGI (DU-145 prostate)?
Its TGI is > 100 µM.

What about the GI50 (HOP-92 NSCLC) of the same compound?
Its GI50 is 2300 nM.

What about the TGI (HOP-92 NSCLC) of the same compound?
The TGI was 6.95 µM.

What about the GI50 (NCI-H23 lung) of the same compound?
Its GI50 is 2760 nM.

And the TGI (NCI-H23 lung)?
The TGI was 8.15 µM.

What about the GI50 (OVCAR-3 ovarian) of the same compound?
Its GI50 is 3.11 µM.

What about the TGI (OVCAR-3 ovarian) of the same compound?
Its TGI is 10.7 µM.

What about the GI50 (MALME-3M melanoma) of the same compound?
The GI50 was 2370 nM.

What about the TGI (MALME-3M melanoma) of the same compound?
Its TGI is 8.4 µM.

What about the GI50 (786-0 renal) of the same compound?
The GI50 was 3.61 µM.

What about the TGI (786-0 renal) of the same compound?
Its TGI is 32.1 µM.

What about the GI50 (HCC-2998 colon) of the same compound?
The GI50 was 4.12 µM.

And the TGI (HCC-2998 colon)?
The TGI was 23.4 µM.

And the GI50 (MDA-MB-468 breast)?
The GI50 was 2410 nM.

What about the TGI (MDA-MB-468 breast) of the same compound?
Its TGI is 7.79 µM.

What about the GI50 (UACC-257 melanoma) of the same compound?
Its GI50 is 3.17 µM.

And the TGI (UACC-257 melanoma)?
Its TGI is 16 µM.

And the GI50 (A549 NSCLC)?
Its GI50 is 3.81 µM.

What about the TGI (A549 NSCLC) of the same compound?
The TGI was 19.2 µM.

What about the GI50 (OVCAR-8 ovarian) of the same compound?
Its GI50 is 4.58 µM.

And the TGI (OVCAR-8 ovarian)?
Its TGI is 20.6 µM.

What about the GI50 (RPMI-8226 leukemia) of the same compound?
The GI50 was 2080 nM.

What about the TGI (RPMI-8226 leukemia) of the same compound?
Its TGI is 5.74 µM.

What about the GI50 (K-562 leukemia) of the same compound?
Its GI50 is 3.23 µM.

What about the TGI (K-562 leukemia) of the same compound?
Its TGI is 13.9 µM.

And the GI50 (HOP-62 NSCLC)?
The GI50 was 6.16 µM.

And the TGI (HOP-62 NSCLC)?
Its TGI is 21.4 µM.

And the GI50 (CAKI-1 renal)?
The GI50 was 3.46 µM.

And the TGI (CAKI-1 renal)?
Its TGI is > 100 µM.

And the GI50 (SN12C renal)?
Its GI50 is 3.1 µM.

What about the TGI (SN12C renal) of the same compound?
Its TGI is 12.2 µM.

What about the GI50 (HCT-116 colon) of the same compound?
Its GI50 is 3.46 µM.

And the TGI (HCT-116 colon)?
Its TGI is 12.6 µM.

And the GI50 (BT-549 breast)?
The GI50 was 2860 nM.

What about the TGI (BT-549 breast) of the same compound?
The TGI was 10.5 µM.

And the GI50 (HCT-15 colon)?
Its GI50 is 3.4 µM.

What about the TGI (HCT-15 colon) of the same compound?
Its TGI is 14.6 µM.

What about the GI50 (MOLT-4 leukemia) of the same compound?
Its GI50 is 2920 nM.

And the TGI (MOLT-4 leukemia)?
The TGI was 8.41 µM.

And the GI50 (COLO 205 colon)?
Its GI50 is 4.89 µM.

What about the TGI (COLO 205 colon) of the same compound?
The TGI was 20 µM.

And the GI50 (KM12 colon)?
The GI50 was 3.82 µM.

And the TGI (KM12 colon)?
Its TGI is > 100 µM.

What about the GI50 (M14 melanoma) of the same compound?
Its GI50 is 4.28 µM.

And the TGI (M14 melanoma)?
Its TGI is 89.8 µM.

What about the GI50 (LOX IMVI melanoma) of the same compound?
Its GI50 is 3.67 µM.

What about the TGI (LOX IMVI melanoma) of the same compound?
Its TGI is 15.1 µM.

What about the GI50 (SW-620 colon) of the same compound?
Its GI50 is 4.35 µM.

And the TGI (SW-620 colon)?
The TGI was 31.7 µM.

What about the GI50 (NCI-H226 lung) of the same compound?
The GI50 was 3.77 µM.

What about the TGI (NCI-H226 lung) of the same compound?
Its TGI is 19.4 µM.

What about the GI50 (MCF7 breast) of the same compound?
Its GI50 is 2910 nM.

What about the TGI (MCF7 breast) of the same compound?
Its TGI is 11 µM.

What about the GI50 (HT29 colon) of the same compound?
Its GI50 is 5.76 µM.

What about the TGI (HT29 colon) of the same compound?
The TGI was 20 µM.

What about the GI50 (SR leukemia) of the same compound?
Its GI50 is 2060 nM.

And the TGI (SR leukemia)?
The TGI was 5.03 µM.

And the GI50 (HL-60(TB) leukemia)?
The GI50 was 2150 nM.

What about the TGI (HL-60(TB) leukemia) of the same compound?
The TGI was 7.92 µM.

And the GI50 (RXF 393 renal)?
Its GI50 is 4.18 µM.

What about the TGI (RXF 393 renal) of the same compound?
Its TGI is 24.2 µM.

And the GI50 (HS 578T breast)?
Its GI50 is 3.23 µM.

And the TGI (HS 578T breast)?
The TGI was > 100 µM.

And the GI50 (CCRF-CEM leukemia)?
Its GI50 is 3.57 µM.

What about the TGI (CCRF-CEM leukemia) of the same compound?
Its TGI is 52 µM.

And the GI50 (OVCAR-5 ovarian)?
The GI50 was 9.78 µM.

What about the TGI (OVCAR-5 ovarian) of the same compound?
The TGI was 86.6 µM.

What about the GI50 (EKVX NSCLC) of the same compound?
Its GI50 is 3.05 µM.

And the TGI (EKVX NSCLC)?
Its TGI is 12.3 µM.

What about the GI50 (SF-268 CNS) of the same compound?
Its GI50 is 3.78 µM.

And the TGI (SF-268 CNS)?
The TGI was > 100 µM.

What about the GI50 (SK-MEL-5 melanoma) of the same compound?
Its GI50 is 1860 nM.

What about the TGI (SK-MEL-5 melanoma) of the same compound?
The TGI was 3.86 µM.

And the GI50 (NCI-H460 lung)?
The GI50 was 3.55 µM.

What about the TGI (NCI-H460 lung) of the same compound?
Its TGI is 16.4 µM.

And the GI50 (T-47D breast)?
Its GI50 is 2570 nM.

What about the TGI (T-47D breast) of the same compound?
The TGI was 8.98 µM.

And the GI50 (SF-295 CNS)?
The GI50 was 3.34 µM.

What about the TGI (SF-295 CNS) of the same compound?
The TGI was 14.8 µM.

What about the GI50 (U251 CNS) of the same compound?
The GI50 was 3.3 µM.

What about the TGI (U251 CNS) of the same compound?
Its TGI is 12.7 µM.

And the GI50 (SK-MEL-28 melanoma)?
Its GI50 is 3.4 µM.

What about the TGI (SK-MEL-28 melanoma) of the same compound?
The TGI was 39 µM.
